Results published in patent publication US20050113334A1, “COMPOSITION AND METHOD” (priority 2003, published 2005).

System: Desulfovibrio spp.
Assay: In vitro fermentation of fibers with canine fecal inoculum, FISH enumeration
Assay type: cell-based
Conditions: 39° C.; for Numbers of Desulfovibrio spp., LOG10 CFU AT 8 HOUR: after 8 hour incubation
Protocol: Fermentation vessels containing anaerobic phosphate buffered medium were prepared and 1 ml canine fecal inoculum (10% w/v fecal sample to buffer) added. The composition of the media was as described in Sunvold G D, Hussein H S, Fahey G C, Merchen N R, and Reinhart G A (1995), In vitro fermentation of selected fiber sources by dogs fecal inoculum and in vivo digestion and metabolism of fiber supplemental diets. J. Animal Sci. 73:1099-1109 (1995). Fermentations were carried out at 39° C. Experiments were conducted in a blind-coded manner with different fibers. […] An aliquot of this was prepared for FISH. […] Genus specific 16SrRNA-targeted probes were synthesized and monolabelled at the 5″ end with fluorescent dye to detect bacteria of interest in the fermentation media. Total nucleic acid was stained to obtain total microbial counts.

Substance | Numbers of Desulfovibrio spp., Log10 CFU AT 0 HOUR | Numbers of Desulfovibrio spp., LOG10 CFU AT 8 HOUR
Arabinogalactan | 7.5 ± 0.3 log cfu/ml of fecal inoculum | 6.4 ± 1.0 log cfu/ml of fecal inoculum
Fructooligosaccharide | 6.9 ± 1.0 log cfu/ml of fecal inoculum | 6.3 ± 0.8 log cfu/ml of fecal inoculum
Galacto-oligosaccharide | 7.0 ± 1.0 log cfu/ml of fecal inoculum | 6.8 ± 0.9 log cfu/ml of fecal inoculum
Inulin | 7.3 ± 0.2 log cfu/ml of fecal inoculum | 6.4 ± 1.0 log cfu/ml of fecal inoculum
Xylooligosaccharide | 7.2 ± 0.4 log cfu/ml of fecal inoculum | 6.8 ± 0.9 log cfu/ml of fecal inoculum
